From US20240197658A1, “COMPOSITION FOR INHIBITING ANTI-CANCER DRUG RESISTANCE” (AJOU UNIVERSITY INDUSTRY-ACADEMIC COOPERATION FOUNDATION, priority 2022, published 2024)

Assays:
Assay type in all cases: cell-based
SNU668 cells = assay: Cell viability of gastric cancer cells cultured in fibroblast conditioned media; conditions: FIG. 3
Method: Gastric cancer cells, SNU668 cells, were cultured in conditioned media of fibroblasts, CAF98 and CAF104, respectively, and treated with Example to confirm changes in cell viability of cancer cells.
FIG. 3 illustrates results of confirming the cell viability of SNU66, a gastric cancer cell, under various conditions according to Experimental Example of the present disclosure.

[1] = system: fibroblasts CAF47, CAF51, CAF98, and CAF104; assay: Confirmation of inhibition of senescence of fibroblasts (shape observation); conditions: FIG. 2
Method: An experiment was performed to confirm changes in shapes of fibroblasts by treating several fibroblasts CAF47, CAF51, CAF98, and CAF104 with an anti-cancer drug, 5-fluorouracil (5-FU), and then treating Example thereto.
FIG. 2 illustrates results of observing the shapes of fibroblasts under various conditions according to Experimental Example of the present disclosure.

SNU668 = assay: Migration of gastric cancer cells in fibroblast condition media / co-culture with CAFs; conditions: for migration of gastric cancer cells: FIGS. 4 and 5
Method: An experiment was performed to confirm changes in migration of gastric cancer cells when treating gastric cancer cells with a substance according to Example (ftaxilide).
SNU668 was co-cultured with 5-FU in various types of fibroblast condition media, and sequentially additionally treated with 5-FU and Example to confirm changes in the migration of gastric cancer cells.
FIG. 4 illustrates results of observing the migration of SNU668, a gastric cancer cell, under various conditions according to Experimental Example of the present disclosure.
FIG. 5 illustrates results of measuring the migration of SNU668, a gastric cancer cell, under various conditions according to Experimental Example of the present disclosure.

[2] = CAF treated with Example (100 μM 5-FU+5 μM Example)

| Structure (SMILES) | cell viability of cancer cells (SNU668 cells; SNU668 in conditioned medium of CAF98 and CAF104, treated with 5-FU (C98_5FU, C104_5FU)) | shapes of fibroblasts (characteristics of senescent cells) ([1]; fibroblasts CAF47, CAF51, CAF98, CAF104 treated with 5-FU) | migration of gastric cancer cells (SNU668; CAFs senesced by 5-FU then co-cultured with SNU668 (100 μM 5-FU)) | migration of gastric cancer cells (SNU668; SNU668 treated with 5-FU (SNU668+5FU)) | cell viability of cancer cells (SNU668 cells; SNU668 in conditioned medium of CAF98 and CAF104, 5-FU, further treated with Example (C98_5FU_Ftaxil, C104_5FU_Ftaxil)) | shapes of fibroblasts ([1]; fibroblasts treated with 5-FU, then with Example) | senescence of CAF (SNU668; [2]) | migration of gastric cancer cells (SNU668; [2]) |
| --- | --- | --- | --- | --- | --- | --- | --- | --- |
| O=c1[nH]cc(F)c(=O)[nH]1 [Example 5-FU, 5-fluorouracil] | the cell viability of cancer cells further increased | the cell sizes increased and the cell growth rate slowed down | the migration of gastric cancer cells further increased | the migration of gastric cancer cells increased | – | – | – | – |
| Cc1cccc(C)c1NC(=O)c1ccccc1C(=O)O [Example, Ftaxilide] | – | – | – | – | decreased again | the senescent fibroblasts returned to their original shapes | the senescence of CAF was prevented | decreased again |
